Data on 30 compounds can be found in patent US7488740B2, “Substituted quinolin-4-ylamine analogues” (Neurogen Corporation, priority 2003, dated 2009).

Each structure is given as a SMILES string.

In this experiment the target is T1, human capsaicin receptor (Homo sapiens, UniProt Q8NER1).
T1 construct: A cDNA encoding full length human capsaicin receptor recited in U.S. Pat. No. 6,482,611 was subcloned in the plasmid pBK-CMV; expressed in transfected cells
T1 sequence (Q8NER1 whole entry): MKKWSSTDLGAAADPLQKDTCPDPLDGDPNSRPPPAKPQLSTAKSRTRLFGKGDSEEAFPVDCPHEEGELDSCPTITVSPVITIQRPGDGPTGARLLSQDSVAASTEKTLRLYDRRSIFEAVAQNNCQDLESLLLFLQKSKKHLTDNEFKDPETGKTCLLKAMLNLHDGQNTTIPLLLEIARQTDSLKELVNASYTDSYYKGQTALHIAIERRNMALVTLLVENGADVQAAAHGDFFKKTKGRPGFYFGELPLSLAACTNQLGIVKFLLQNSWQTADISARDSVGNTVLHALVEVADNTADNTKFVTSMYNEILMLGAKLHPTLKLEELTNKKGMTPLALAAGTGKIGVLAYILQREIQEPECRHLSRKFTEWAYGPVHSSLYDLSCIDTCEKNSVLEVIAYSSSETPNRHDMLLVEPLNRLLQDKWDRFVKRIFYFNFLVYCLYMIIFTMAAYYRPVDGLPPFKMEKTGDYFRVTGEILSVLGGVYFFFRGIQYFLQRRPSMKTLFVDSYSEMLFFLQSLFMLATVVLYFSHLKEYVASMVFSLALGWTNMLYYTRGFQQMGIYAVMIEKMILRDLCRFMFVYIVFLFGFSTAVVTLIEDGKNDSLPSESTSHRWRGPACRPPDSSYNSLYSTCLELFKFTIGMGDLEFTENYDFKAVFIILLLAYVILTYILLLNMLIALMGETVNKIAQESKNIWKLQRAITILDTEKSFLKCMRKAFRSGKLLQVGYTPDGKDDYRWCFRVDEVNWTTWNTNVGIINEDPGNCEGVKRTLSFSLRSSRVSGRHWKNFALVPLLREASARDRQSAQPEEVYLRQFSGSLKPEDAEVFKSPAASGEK
The experiment is described as follows: Calcium mobilization assay (Example 6). As to conditions: concentration required to provide a 50% decrease in the fluorescence response of cells exposed to one IC50 of capsaicin. Type of experiment: cell-based. In outline:
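HEK293 clonal lines stably expressing full-length human capsaicin receptor, Fluo-3 AM loaded in KRH buffer pH 7.4. Compounds (final 1-5 μM) preincubated 0.5-6 h at room temperature in the dark, then capsaicin added at its predetermined IC50 concentration. FLIPR calcium signal at 30-60 s; IC50 = antagonist concentration giving 50% decrease.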
For orientation: A change in cytosolic calcium serves as a functional read-out for many receptors and channels.
Usually IC50 stands for the point on the concentration scale where inhibition reaches its midpoint. Turning to `CC(C)COCc1cc(Nc2ccc(S(=O)(=O)C(F)(F)F)cc2)c2ccc(-c3ncccc3C(F)(F)F)nc2n1` [Compound 74, 2-(isobutoxymethyl)-7-[3-(trifluoromethyl)pyridin-2-yl]-N-{4-[(trifluoromethyl)sulfonyl]phenyl}-1,8-naphthyridin-4-amine], the IC50 is at most 1 µM.
As for `CC(C)C(=O)N(C)Cc1cc(Nc2ccc(C(F)(F)F)cc2)c2ccc(-c3ncccc3C(F)(F)F)nc2n1` [Compound 75, N,2-dimethyl-N-({4-{[4-(trifluoromethyl)phenyl]amino}-7-[3-(trifluoromethyl)pyridin-2-yl]-1,8-naphthyridin-2-yl}methyl)propanamide], the IC50 is at most 1 µM.
As for `CN(CC(=O)O)Cc1cc(Nc2ccc(C(F)(F)F)cc2)c2ccc(-c3ncccc3C(F)(F)F)nc2n1` [Compound 76, N-methyl-N-({4-{[4-(trifluoromethyl)phenyl]amino}-7-[3-(trifluoromethyl)pyridin-2-yl]-1,8-naphthyridin-2-yl}methyl)glycine], the IC50 is at most 1 µM.
Turning to `CCN(CCCO)Cc1cc(Nc2ccc(C(F)(F)F)cc2)c2ccc(-c3ncccc3C(F)(F)F)nc2n1` [Compound 77, 3-[ethyl({4-{[4-(trifluoromethyl)phenyl]amino}-7-[3-(trifluoromethyl)pyridin-2-yl]-1,8-naphthyridin-2-yl}methyl)amino]propan-1-ol], the IC50 is at most 1 µM.
Consider `CC(C)N(CCCO)Cc1cc(Nc2ccc(C(F)(F)F)cc2)c2ccc(-c3ncccc3C(F)(F)F)nc2n1` [Compound 78, 3-[isopropyl({4-{[4-(trifluoromethyl)phenyl]amino}-7-[3-(trifluoromethyl)pyridin-2-yl]-1,8-naphthyridin-2-yl}methyl)amino]propan-1-ol], for which the IC50 is at most 1 µM.
On to `CCCN(CCCO)Cc1cc(Nc2ccc(C(F)(F)F)cc2)c2ccc(-c3ncccc3C(F)(F)F)nc2n1` [Compound 79], for which the IC50 is at most 1 µM.
Take `CC(C)CN(Cc1cc(Nc2ccc(C(F)(F)F)cc2)c2ccc(-c3ncccc3C(F)(F)F)nc2n1)S(C)(=O)=O` [Compound 80, N-isobutyl-N-({4-{[4-(trifluoromethyl)phenyl]amino}-7-[3-(trifluoromethyl)pyridin-2-yl]-1,8-naphthyridin-2-yl}methyl)methanesulfonamide]: the IC50 is at most 1 µM.
In the case of `CC(C)CN(CC(=O)O)Cc1cc(Nc2ccc(C(F)(F)F)cc2)c2ccc(-c3ncccc3C(F)(F)F)nc2n1` [Compound 81, N-isobutyl-N-({4-{[4-(trifluoromethyl)phenyl]amino}-7-[3-(trifluoromethyl)pyridin-2-yl]-1,8-naphthyridin-2-yl}methyl)glycine] it was at most 1 µM; in that of `CC(C)(O)COCc1cc(Nc2ccc(C(F)(F)F)cc2)c2ccc(-c3ncccc3C(F)(F)F)nc2n1` [Compound 82, 2-methyl-1-({4-{[4-(trifluoromethyl)phenyl]amino}-7-[3-(trifluoromethyl)pyridin-2-yl]-1,8-naphthyridin-2-yl}methoxy)propan-2-ol], at most 1 µM.
For `Cc1ccc(Nc2cc(COCC(C)C)nc3nc(-c4ncccc4C(F)(F)F)ccc23)nc1` [Compound 83, 2-(isobutoxymethyl)-N-(5-methylpyridin-2-yl)-7-[3-(trifluoromethyl)pyridin-2-yl]-1,8-naphthyridin-4-amine] the value was at most 1 µM; for `CC(C)COCc1cc(Nc2ccccn2)c2ccc(-c3ncccc3C(F)(F)F)nc2n1` [Compound 84, 2-(isobutoxymethyl)-N-pyridin-2-yl-7-[3-(trifluoromethyl)pyridin-2-yl]-1,8-naphthyridin-4-amine], at most 1 µM.
For `CC(C)COCc1cc(Nc2ccc(C(C)(C)O)cn2)c2ccc(-c3ncccc3C(F)(F)F)nc2n1` [Compound 85, 2-[6-({2-(isobutoxymethyl)-7-[3-(trifluoromethyl)pyridin-2-yl]-1,8-naphthyridin-4-yl}amino)pyridin-3-yl]propan-2-ol] the value was at most 1 µM; for `C[C@@H](OCc1cc(Nc2ccc(C(F)(F)F)cc2)c2ccc(-c3ncccc3C(F)(F)F)nc2n1)C(C)(C)O` [Compound 86, 2-methyl-3-({4-{[4-(trifluoromethyl)phenyl]amino}-7-[3-(trifluoromethyl)pyridin-2-yl]-1,8-naphthyridin-2-yl}methoxy)butan-2-ol], at most 1 µM; for `CC(C)COCc1cc(Nc2ccc(C#N)cn2)c2ccc(-c3ncccc3C(F)(F)F)nc2n1` [Compound 87, 6-({2-(isobutoxymethyl)-7-[3-(trifluoromethyl)pyridin-2-yl]-1,8-naphthyridin-4-yl}amino)nicotinonitrile], at most 1 µM.
As for `OCc1cc(Nc2ccc(C(F)(F)F)cn2)c2ccc(-c3ncccc3C(F)(F)F)nc2n1` [Compound 88, (7-[3-(trifluoromethyl)pyridin-2-yl]-4-{[5-(trifluoromethyl)pyridin-2-yl]amino}-1,8-naphthyridin-2-yl)methanol], the IC50 is at most 1 µM.
With `CN(C)Cc1cc(Nc2ccc(C(F)(F)F)cn2)c2ccc(-c3ncccc3C(F)(F)F)nc2n1` [Compound 89, 2-[(dimethylamino)methyl]-7-[3-(trifluoromethyl)pyridin-2-yl]-N-[5-(trifluoromethyl)pyridin-2-yl]-1,8-naphthyridin-4-amine], the IC50 was at most 1 µM.
For `C[C@@H]1CN(Cc2cc(Nc3ccc(C(F)(F)F)cn3)c3ccc(-c4ncccc4C(F)(F)F)nc3n2)C[C@H](C)O1` [Compound 90, rel-2-{[(2R,6S)-2,6-dimethylmorpholin-4-yl]methyl}-7-[3-(trifluoromethyl)pyridin-2-yl]-N-[5(trifluoromethyl)pyridin-2-yl]-1,8-naphthyridin-4-amine], the IC50 is at most 1 µM.
As to `FC(F)(F)c1ccc(Nc2cc(CN3CCOCC3)nc3nc(-c4ncccc4C(F)(F)F)ccc23)nc1` [Compound 91, 2-(morpholin-4-ylmethyl)-7-[3-(trifluoromethyl)pyridin-2-yl]-N-[5-(trifluoromethyl)pyridin-2-yl]-1,8-naphthyridin-4-amine], the IC50 was at most 1 µM.
Regarding `FC(F)(F)c1ccc(Nc2cc(CN3CCCCC3)nc3nc(-c4ncccc4C(F)(F)F)ccc23)nc1` [Compound 92, 2-(piperidin-1-ylmethyl)-7-[3-(trifluoromethyl)pyridin-2-yl]-N-[5-(trifluoromethyl)pyridin-2-yl]-1,8-naphthyridin-4-amine], the IC50 is at most 1 µM.
In the case of `CC1CCCN1Cc1cc(Nc2ccc(C(F)(F)F)cn2)c2ccc(-c3ncccc3C(F)(F)F)nc2n1` (stereo not drawn) [Compound 93, 2-[(2-methylpyrrolidin-1-yl)methyl]-7-[3-(trifluoromethyl)pyridin-2-yl]-N-[5-(trifluoromethyl)pyridin-2-yl]-1,8-naphthyridin-4-amine] it was at most 1 µM; in that of `CCN(CC)Cc1cc(Nc2ccc(C(F)(F)F)cn2)c2ccc(-c3ncccc3C(F)(F)F)nc2n1` [Compound 94, 2-[(diethylamino)methyl]-7-[3-(trifluoromethyl)pyridin-2-yl]-N-[5-(trifluoromethyl)pyridin-2-yl]-1,8-naphthyridin-4-amine], at most 1 µM; in that of `FC(F)(F)c1ccc(Nc2cc(CN3CCCC3)nc3nc(-c4ncccc4C(F)(F)F)ccc23)nc1` [Compound 95, 2-(pyrolidin-1-ylmethyl)-7-[3-(trifluoromethyl)pyridin-2-yl]-N-[5-(trifluoromethyl)pyridin-2-yl]-1,8-naphthyridin-4-amine], at most 1 µM.
With `COc1cc(Nc2ccc(C(F)(F)F)cn2)c2ccc(-c3ncccc3C(F)(F)F)nc2n1` [Compound 96, 2-methoxy-7-[3-(trifluoromethyl)pyridin-2-yl]-N-[5-(trifluoromethyl)pyridin-2-yl]-1,8-naphthyridin-4-amine], the IC50 was at most 1 µM.
In the case of `Oc1cc(Nc2ccc(C(F)(F)F)cn2)c2ccc(-c3ncccc3C(F)(F)F)nc2n1` [Compound 97, 7-[3-(trifluoromethyl)pyridin-2-yl]-4-{[5-(trifluoromethyl)pyridin-2-yl]amino}-1,8-naphthyridin-2-ol], the concentration for half-maximal inhibition (IC50) is at most 1 µM.
In the case of `FC(F)(F)c1ccc(Nc2cc(C3CCC3)nc3nc(-c4ncccc4C(F)(F)F)ccc23)nc1` [Compound 98, 2-cyclobutyl-7-[3-(trifluoromethyl)pyridin-2-yl]-N-[5-(trifluoromethyl)pyridin-2-yl]-1,8-naphthyridin-4-amine] it was at most 1 µM.
In the case of `Cc1ccc(Nc2cc(C3CCC3)nc3nc(-c4ncccc4C(F)(F)F)ccc23)nc1` [Compound 99, 2-cyclobutyl-N-(5-methylpyridin-2-yl)-7-[3-(trifluoromethyl)pyridin-2-yl]-1,8-naphthyridin-4-amine], the IC50 is at most 1 µM.
In the case of `N#Cc1ccc(Nc2cc(C3CCC3)nc3nc(-c4ncccc4C(F)(F)F)ccc23)nc1` [Compound 100, 6-({2-cyclobutyl-7-[3-(trifluoromethyl)pyridin-2-yl]-1,8-naphthyridin-4-yl}amino)nicotinonitrile] it was at most 1 µM.
For `FC(F)(F)c1cccnc1-c1ccc2c(Nc3ccc(Cl)cn3)cc(C3CCC3)nc2n1` [Compound 101, N-(5-chloropyridin-2-yl)-2-cyclobutyl-7-[3-(trifluoromethyl)pyridin-2-yl]-1,8-naphthyridin-4-amine] the value was at most 1 µM.
Regarding `CC(C)c1cc(Nc2ccc(C(F)(F)F)cn2)c2ccc(-c3ncccc3C(F)(F)F)nc2n1` [Compound 102, 2-isopropyl-7-[3-(trifluoromethyl)pyridin-2-yl]-N-[5-(trifluoromethyl)pyridin-2-yl]-1,8-naphthyridin-4-amine], the IC50 was at most 1 µM.
Regarding `Cc1ccc(Nc2cc(C(C)C)nc3nc(-c4ncccc4C(F)(F)F)ccc23)nc1` [Compound 103, 2-isopropyl-N-(5-methylpyridin-2-yl)-7-[3-(trifluoromethyl)pyridin-2-yl]-1,8-naphthyridin-4-amine], the IC50 is at most 1 µM.
